Key:
[1] = molecular target: KRAS G12C (Homo sapiens, UniProt P01116, G12C); assay: SOS1-catalyzed KRAS coupled nucleotide exchange assay (Alpha technology); assay type: biochemical; design: His; key: A: KRAS G12C bound and modulated; settings: inhibition of SOS1 mediated KRAS nucleotide exchange
Protocol: Method I: The inhibition of the SOS1-catalyzed nucleotide exchange activity of KRAS (e.g., KRAS G12C/C118A) was measured using Alpha (Amplified Luminescent Proximity Homogeneous Assay) technology. 20 nM GDP-bound human KRAS (G12C/C118A) protein was incubated with two-fold serially-diluted test compound or DMSO for 5 minutes at ambient temperature in reaction buffer (25 mM HEPES, pH 7.4; 10 mM MgCl2; 0.01% Triton X-100). For all subsequent steps, DTT was added to the reaction buffer at a final concentration of 1 mM. Next, GTP and SOS-1 were added in DTT-reaction buffer at final concentrations of 1.25 mM or 500 nM, respectively, and incubated at RT for 30 minutes. Finally, c-RAF RBD (50 nM final), Alpha glutathione donor beads (PerkinElmer; 20 μg/mL final), and AlphaLISAnickel chelate acceptor beads (PerkinElmer; 20 μg/mL final), all diluted in DTT-reaction buffer, were added. The reaction mixture was incubated at RT for 5 min, and then the plates were read on an EnVision® Multilabel Reader using the AlphaScreen protocol. Luminescence signal was measured at 570 nm following a 180 ms excitation at 680 nm. Signal intensity corresponded with the association of c-RAF RBD with GTP-bound KRAS G12C/C118A and was normalized to DMSO control.
Method II: Inhibition of the SOS1-catalyzed nucleotide exchange activity of KRAS^G12C was measured using Alpha technology (PerkinElmer). 50 nM GDP-bound human KRAS^G12C protein was incubated with serially-diluted compound or DMSO for 2 hrs at RT in RBD-RAS binding buffer (BPSBioscience). 1 mM GTP and 500 nM SOS-1 were added to the reaction mixture and incubated at RT for 30 min. GST-tagged RBD-cRAF was then added to the reaction mixture at a final concentration of 2.5 nM and incubated at RT for 30 min. Finally, Alpha Glutathione acceptor beads and Nickel chelate donor beads (PerkinElmer) were diluted to 1:500 and 1:250, respectively, and added to the reaction mixture. The final reaction was incubated at RT for 30 min. Plates were read on a TECAN SPARK® Multiplate Reader. The luminescence signal was measured at 615 nm following excitation at 680 nm. Signal intensity was normalized to DMSO control.

[2] = system: phospho-ERK1/2 in MIA PaCa-2 cells (express KRAS G12C); assay: ERK1/2 phosphorylation in MIA PaCa-2 cells; assay type: cell-based, human; design: key: X: KRAS G12C bound and modulated in cells
Protocol: MIA PaCa-2 cells were cultured in Dulbecco's Modified Eagle's Medium (Wisent) supplemented with 10% FBS, 2.5% horse serum, and 1% penicillin/streptomycin. Cells were seeded in 6-well plates at 500,000 cells/well and incubated at 37° C., 5% CO2 for 16 hours. Cells were treated with the indicated concentrations of compound or DMSO alone and incubated at 37° C., 5% CO2 for 6 or 24 hours. Conditioned media was discarded, and adherent cells were washed with PBS before they were scraped. Cell suspensions were centrifugated at 2,000 RPM for 5 minutes at 4° C. and supernatants were discarded. Cell pellets were resuspended with 1×RIPA buffer (Millipore) and incubated on ice for 15 minutes. Protein lysates were extracted by centrifugating at 20,000 RPM for 20 minutes at 4° C. Proteins were separated and total KRas protein levels were quantified by Simple Western Immunoassay (ProteinSimple) using the 2-40 kDa Separation Module for Jess according to the manufacturer's protocol, using a protein concentration of 0.5 μg/μl and antibodies targeting KRas (clone #4F3, Sigma) and GAPDH (clone #14C10, Cell Signaling) diluted to 1:10 and 1:1600, respectively, where the latter was used as a loading control. A 3:1 ratio of rabbit to mouse HRP-conjugated secondary antibodies was used for detection. KRas protein levels were quantified relative to GAPDH loading levels and subsequently normalized to the DMSO control. Phosphorylated ERK1/2 levels were quantified by Simple Western Immunoassay (ProteinSimple) using the Protein Normalization Assay Module for Jess according to the manufacturer's protocol using a protein concentration of 0.5 μg/μl and an antibody targeting phosphor-ERK1/2 (clone #D13.14.4E, Cell Signalling) diluted to 1:10. Phosphorylated ERK1/2 levels were normalized to the Jess Protein Normalization Reagent loading control and subsequently to the DMSO control.
MIA PaCa-2 cells were cultured in Dulbecco's Modified Eagle's Medium (Wisent) supplemented with 10% FBS, 2.5% horse serum, and 1% penicillin/streptomycin. Cells were seeded in 96-well plates at a density of 25,000 cells/well and incubated at 37° C., 5% CO2 for 24 hours. The next day, cells were starved in cell culture media containing 1% FBS only at 37° C., 5% CO2 for 16 hours. Following starvation, serially-diluted compounds or DMSO alone were added to cells and incubated at 37° C., 5% CO2 for 1 or 3 hours. Prior to cell lysis, 25 ng/ml human epidermal growth factor (hEGF) (Sigma) was added to the cells and incubated at 37° C., 5% CO2 for 10 minutes. Conditioned media was discarded, and adherent cells lysed and basal ERK1/2 phosphorylation levels were measured using the Phospho-ERK (Thr202/Tyr204) Cellular HTRF kit (Perkin Elmer) according to the manufacturer's protocol. The fluorescent signal of the acceptor antibody at a wavelength of 665 nm was normalized to that of the donor antibody at 620 nm. HTRF ratios were plotted and relative IC50 values were obtained using Prism (GraphPad).

KRAS-SOS1 Nucleotide Exchange [1]	SMILES	pERK - MIA PaCa-2 - (6 hours, 5 uM) [2]
A	C[S+]([O-])c1c(F)c(F)c(NC2CN(c3ncnc4cc(-c5ccccc5F)c(Cl)cc34)C2)c(F)c1F (racemic) [Compound 28A, 1-(6-chloro-7-(2-fluorophenyl)quinazolin-4-yl)-N-(2,3,5,6-tetrafluoro-4-(methylsulfinyl)phenyl)azetidin-3-amine]	
A	CSc1c(F)c(F)c(N2CCN(c3ccnc4c(F)c(-c5c(O)cccc5F)c(Cl)cc34)[C@@H](C)C2)c(F)c1F [Compound 29A, 2-(6-chloro-8-fluoro-4-((S)-2-methyl-4-(2,3,5,6-tetrafluoro-4-(methylthio)phenyl)piperazin-1-yl)quinolin-7-yl)-3-fluorophenol]	
A	O=S(=O)(c1c(F)c(F)c(F)c(F)c1OC(F)F)N1CCN(c2ncnc3c2CCN(c2cccc4ccccc24)C3)CC1 [Compound 30A, 4-(4-((2-(difluoromethoxy)-3,4,5,6-tetrafluorophenyl)sulfonyl)piperazin-1-yl)-7-(naphthalen-1-yl)-5,6,7,8-tetrahydropyrido[3,4-d]pyrimidine]	
A	C[C@H]1CN(c2c(F)c(F)c(F)c(F)c2[S+](C)[O-])CCN1c1ncnc2cc(-c3ccccc3F)c(Cl)cc12 (stereo partly drawn) [Compound 38A, 6-chloro-7-(2-fluorophenyl)-4-((2S)-2-methyl-4-(2,3,4,5-tetrafluoro-6-(methylsulfinyl)phenyl)piperazin-1-yl)quinazoline]	
A	Cc1cccc(C)c1-c1cc2nccc(N3CCN(Cc4c(F)c(F)c(F)c(F)c4S(C)(=O)=O)C[C@@H]3C)c2cc1Cl [Compound 45A, (S)-6-chloro-7-(2,6-dimethylphenyl)-4-(2-methyl-4-(2,3,4,5-tetrafluoro-6-(methylsulfonyl)benzyl)piperazin-1-yl)quinoline]	
A	CSc1c(F)c(F)c(F)c(F)c1N1CC(Nc2ncnc3cc(-c4ccccc4F)c(Cl)cc23)C1 [Compound 47A, 6-chloro-7-(2-fluorophenyl)-N-(1-(2,3,4,5-tetrafluoro-6-(methylthio)phenyl)azetidin-3-yl)quinazolin-4-amine]	

The next lines start with the compound.

SMILES	KRAS-SOS1 Nucleotide Exchange [1]	pERK - MIA PaCa-2 - (6 hours, 5 uM) [2]
C[C@H]1CN(c2c(F)c(F)c(S(C)(=O)=O)c(F)c2F)CCN1c1ccnc2c(F)c(-c3c(O)cccc3F)c(Cl)cc12 (racemic) [Compound 24A, 2-(6-chloro-8-fluoro-4-((S)-2-methyl-4-(2,3,5,6-tetrafluoro-4-(methylsulfonyl)phenyl)piperazin-1-yl)quinolin-7-yl)-3-fluorophenol]	A	
Cc1cccc(C)c1-c1cc2nccc(N3CC(Nc4c(F)c(F)c([S@+](C)[O-])c(F)c4F)C3)c2cc1Cl (racemic) [Compound 27A]	A	
C[C@H]1CN(c2c(F)c(F)c(S(C)(=O)=O)c(F)c2F)CCN1c1ccnc2c(F)c(-c3c(O)cccc3F)c(Cl)cc12 (single isomer, unassigned) [Compound 25A]	A	
C[C@H]1CN(c2c(F)c(F)c(S(C)(=O)=O)c(F)c2F)CCN1c1ccnc2c(F)c(-c3c(O)cccc3F)c(Cl)cc12 (single isomer, unassigned) [Compound 26A]	A	
O=S(=O)(NC1CN(c2ncnc3c2CCN(c2cccc4cccc(Cl)c24)C3)C1)c1c(F)c(F)c(F)c(F)c1F [Compound 21A, N-(1-(7-(8-chloronaphthalen-1-yl)-5,6,7,8-tetrahydropyrido[3,4-d]pyrimidin-4-yl)azetidin-3-yl)-2,3,4,5,6-pentafluorobenzenesulfonamide]	A	
Cc1cccc(C)c1-c1cc2nccc(N3CC(Nc4c(F)c(F)c(S(C)(=O)=O)c(F)c4F)C3)c2cc1Cl [Compound 22A, 1-(6-chloro-7-(2,6-dimethylphenyl)quinolin-4-yl)-N-(2,3,5,6-tetrafluoro-4-(methylsulfonyl)phenyl)azetidin-3-amine]	A	
CS(=O)(=O)c1c(F)c(F)c(NC2CN(c3ncnc4cc(-c5ccccc5F)c(Cl)cc34)C2)c(F)c1F [Compound 23A, 1-(6-chloro-7-(2-fluorophenyl)quinazolin-4-yl)-N-(2,3,5,6-tetrafluoro-4-(methylsulfonyl)phenyl)azetidin-3-amine]	A	
O=S(=O)(c1c(F)c(F)c(F)c(F)c1C(F)(F)F)N1CCN(c2ncnc3c2CCN(c2cccc4cccc(Cl)c24)C3)CC1 [Compound 32A, 7-(8-chloronaphthalen-1-yl)-4-(4-((2,3,4,5-tetrafluoro-6-(trifluoromethyl)phenyl)sulfonyl)piperazin-1-yl)-5,6,7,8-tetrahydropyrido[3,4-d]pyrimidine]		X
O=S(=O)(c1c(F)c(F)c(F)c(F)c1C(F)(F)F)N1CCN(c2ncnc3c2CCN(c2cccc4ccccc24)C3)CC1 [Compound 33A, 7-(naphthalen-1-yl)-4-(4-((2,3,4,5-tetrafluoro-6-(trifluoromethyl)phenyl)sulfonyl)piperazin-1-yl)-5,6,7,8-tetrahydropyrido[3,4-d]pyrimidine]		X
C[C@H]1CN(c2c(F)c(F)c(F)c(F)c2S(C)(=O)=O)CCN1c1ncnc2cc(-c3ccccc3F)c(Cl)cc12 [Compound 34A, (S)-6-chloro-7-(2-fluorophenyl)-4-(2-methyl-4-(2,3,4,5-tetrafluoro-6-(methylsulfonyl)phenyl)piperazin-1-yl)quinazoline]		X
CS(=O)(=O)c1c(F)c(F)c(F)c(F)c1NC1CN(c2ncnc3cc(-c4ccccc4F)c(Cl)cc23)C1 [Compound 36A, 1-(6-chloro-7-(2-fluorophenyl)quinazolin-4-yl)-N-(2,3,4,5-tetrafluoro-6-(methylsulfonyl)phenyl)azetidin-3-amine]		X
COc1cc(N2CCc3c(ncnc3N3CCN(S(=O)(=O)c4c(F)c(F)c(F)c(F)c4C(F)(F)F)CC3)C2)c2ccccc2c1 [Compound 40A, 7-(3-methoxy-1-naphthyl)-4-[4-[2,3,4,5-tetrakis(fluoranyl)-6-[tris(fluoranyl)methyl]phenyl]sulfonylpiperazin-1-yl]-6,8-dihydro-5H-pyrido[3,4-d]pyrimidine]		X
C[C@H]1CN(Cc2c(F)c(F)c(F)c(F)c2[S+](C)[O-])CCN1c1ncnc2cc(-c3ccccc3F)c(Cl)cc12 (stereo partly drawn) [Compound 46A, 6-chloro-7-(2-fluorophenyl)-4-((2S)-2-methyl-4-(2,3,4,5-tetrafluoro-6-(methylsulfinyl)benzyl)piperazin-1-yl)quinazoline]		X

Reference: US20240092756A1, “METHODS AND COMPOSITION FOR KRAS MODIFICATIONS” (2692372 ONTARIO, INC., priority 2020, published 2024)
